Measured values reported in the supplement of paper PMC3974653.
Structures can show the parent of a compound that is named as a salt.

The molecules below were run on MTT (mouse pheochromocytoma) (assay: IC50 of cell viability (ATP content)). Conditions: (24 or 48 h).
In short: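 MTT mouse pheochromocytoma cells were seeded into white 1536-well plates at 5 µl per well from a 200,000 cells/ml suspension in DMEM with 5% FBS and 1% horse serum, then cultured overnight at 37°C, 5% CO2. A pintool added 23 nl of library compound in DMSO at 8 concentrations (final 0.5 nM to 46 µM) for 24 or 48 hrs, and CellTiter-Glo ATP luminescence was read after 15 minutes. Signals were scaled so that positive-control wells equalled 100% and DMSO wells 0%. IC50 values were derived by fitting a four-parameter logistic curve.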

Structure (SMILES) | IC50 of cell viability [µM]
NC(=O)NO [HYDROXYUREA] | > 46
OC(O)C(Cl)(Cl)Cl [CHLORAL HYDRATE] | > 46
c1ccc2c(c1)Sc1ccccc1N2C[C@H]1CN2CCC1CC2 [Levomequitazine] | > 46
CC(C)(C)NCC(O)c1cc(Cl)c(N)c(Cl)c1 (centres undefined) [CLENBUTEROL] | > 46
O=C(O)C(Cl)Cl [Dichloroacetic acid] | > 46
CCCCNC(C)(C)[PH](=O)O [Butafosfan] | > 46
Nc1ccn([C@@H]2CS[C@H](CO)O2)c(=O)n1 [lamivudine] | > 46
Nc1ccn([C@@H]2CS[C@H](CO)O2)c(=O)n1 [Lamivudine] | > 46
CC[C@H](OC(C)=O)C(C[C@H](C)NC)(c1ccccc1)c1ccccc1 | > 46
CN1CC[C@@]23CCCC[C@@H]2[C@@H]1Cc1ccc(O)cc13 [Dextrorphan tartrate] | > 46
CCc1cc(OC)c(CC(C)N)cc1OC (single isomer, unassigned; (-)) [(-)-2,5-Dimethoxy-4-ethylamphetamine] | > 46
O=[N+]([O-])O[C@H]1CO[C@H]2[C@@H]1OC[C@H]2O [ISOSORBIDE MONONITRATE] | > 46
CCC(C)C1O[C@]2(C=CC1C)CC1CC(C/C=C(\C)[C@H](OC3CC(OC)C(O[C@H]4CC(OC)[C@@H](O)C(C)O4)C(C)O3)[C@@H](C)/C=C/C=C3\COC4C(O)C(C)=C[C@H](C(=O)O1)[C@@]34O)O2 (some centres undefined) [AVERMECTIN B1] | > 46
CCCC(=O)OC(C(Cl)(Cl)Cl)P(=O)(OC)OC (centres undefined) [Butonate] | > 46
O=c1n(Cl)c(=O)n(Cl)c(=O)n1Cl [Symclosene] | > 46
CC/C=C\C/C=C\C/C=C\C/C=C\C/C=C\CCCC(=O)O [EICOSAPENTAENOIC ACID] | > 46
O=C(O)CN(CCN(CC(=O)O)CC(=O)O)CCN(CC(=O)O)CC(=O)O [Pentetic acid] | > 46
COc1cc(CC(C)N)c(OC)cc1Br (single isomer, unassigned; (-)) [(-)-4-Bromo-2,5-dimethoxyamphetamine] | > 46
C/C=C\C[C@H](C)[C@H](O)[C@H]1C(=O)N[C@@H](CC)C(=O)N(C)CC(=O)N(C)[C@@H](CC(C)C)C(=O)N[C@@H](C(C)C)C(=O)N(C)[C@@H](CC(C)C)C(=O)N[C@@H](C)C(=O)N[C@@H](C)C(=O)N(C)[C@@H](CC(C)C)C(=O)N(C)[C@@H](CC(C)C)C(=O)N(C)[C@@H](C(C)C)C(=O)N1C [Cyclosporin A] | > 46
NC(N)=O [Urea] | > 46
CC1CC(O)CC(C)(C)C1 (centres undefined) [3,3,5-TRIMETHYLCYCLOHEXANOL] | > 46
CC(=O)OC1CC(OC2C(O)CC(OC3C(O)CC(O[C@H]4CC[C@]5(C)C6CC[C@]7(C)[C@@H](C8=CC(=O)OC8)[C@@H](O)C[C@]7(O)[C@@H]6CC[C@@H]5C4)OC3C)OC2C)OC(C)C1OC1OC(CO)C(O)C(O)C1O (some centres undefined) [Lanatoside B] | > 46
Oc1ccc(Cl)cc1 [p-Chlorophenol] | > 46

Other lines, results leading:

IC50 of cell viability [µM] | Structure (SMILES)
> 46 | CC(C)[N+](C)(C)CC(O)COc1cccc2ccccc12 (centres undefined) [PRANOLII CHLORIDUM]
> 46 | COc1ccc(C(=O)N2CCN(CC(=O)N3CCOCC3)CC2)cc1 [Molracetam]
> 46 | N[C@@H](Cc1c[nH]c2ccc(O)cc12)C(=O)O [5-HYDROXY-L-TRYPTOPHAN]
> 46 | CCOC(=O)OC(C)OC1=C(C(=O)Nc2ccccn2)N(C)S(=O)(=O)c2ccccc21 (centres undefined) [ampiroxicam]
> 46 | Nc1ncnc(Nc2ccccc2)n1 [Amanozine]
> 46 | CCC(C(=O)OCCN(CC)CC)c1ccccc1 (centres undefined) [BUTETAMATUM]
> 46 | Cl.CN(C)C\1[C@@H]2C[C@H]3CC4=C(C(=CC=C4N(C)C)O)C(=O)\C3=C(O)\[C@]2(O)C(=O)\C(=C1O)C(N)=O (some centres undefined) [MINOCYCLINE HYDROCHLORIDE]
> 46 | CCN(CC)CCNC(=O)c1cc([S+](C)(=O)[O-])ccc1OC [Tiapride hydrochloride]
> 46 | NCCNC(=O)c1ccc(Cl)cn1 [LAZABEMIDE HYDROCHLORIDE]
> 46 | CCCCOC(=O)c1ccc(O)cc1 [Butylparaben]
> 46 | COc1ccc([C@@H]2CC(=O)c3c(O)cc(O[C@@H]4O[C@@H](CO[C@@H]5O[C@@H](C)[C@@H](O)[C@@H](O)[C@H]5O)[C@@H](O)[C@@H](O)[C@H]4O)cc3O2)cc1O [Hesperidin]
> 46 | CN(C)CC/C=C1\c2ccccc2COc2ccc(CC(=O)O)cc21 [OLOPATADINE HYDROCHLORIDE]
> 46 | CN(CC1(C)CCCO1)[S+](=O)([O-])c1ccc(Cl)c([S+](N)(=O)[O-])c1 (centres undefined) [MEFRUSIDE]
> 46 | CCCCNC(=O)N[S+](=O)([O-])c1ccc(N)cc1 [Carbutamide]
> 46 | CCOC(=O)[C@H](CCc1ccccc1)N[C@@H](C)C(=O)N1[C@H](C(=O)O)C[C@H]2CCCC[C@@H]21 [Trandolapril]
> 46 | CC1(C)CCC(NC(=O)[C@@H](N)CCC(=O)O)CC1 [CR 2249]

IC50 of cell viability [µM] | Structure (SMILES)
> 46 | CN1CCN(C2=Nc3ccccc3Cc3ccccc32)CC1 [Perlapine]
> 46 | O=C(CCCN1CCN(c2ccc(F)cc2)CC1)NC1c2ccccc2CSc2ccccc21 (centres undefined) [MONATEPIL MALEATE]
> 46 | CC(C)Cc1ccc(C(C)C(=O)O)cc1 (centres undefined) [Ibuprofen]
> 46 | CN1C(C(=O)Nc2ccccn2)C(=O)c2sc(Cl)cc2[S+]1(=O)[O-] (centres undefined) [Lornoxicam]
> 46 | CC1CN(CCN1)C2=CC3=C(C=C2F)C(=O)\C(=C/N3C4=CC=C(F)C=C4F)C(O)=O (centres undefined) [Temafloxacin]
> 46 | C\C1=C\C(=O)OC2=CC(=CC=C12)OCC#C [GIPARMENUM]
> 46 | O=C(O)c1ccccc1S [Thiosalicylic acid]
> 46 | N[S+](=O)([O-])c1cc(Cl)c(Cl)c([S+](N)(=O)[O-])c1 [Dichlorphenamide]
> 46 | OC[C@@H]1CC[C@H](n2cnc3c(O)ncnc32)O1 [Didanosine]
> 46 | CC[N+](C)(C)Cc1ccccc1Br.Cc1ccc(S(=O)(=O)[O-])cc1 [Bretylium tosylate]
> 46 | CCCCN(CCCC)CC(O)c1cc(Cl)cc2c1-c1ccc(Cl)cc1/C2=C/c1ccc(Cl)cc1 (centres undefined) [LUMEFANTRINE]
> 46 | Cc1c(C)c2c(c(C)c1O)CCC(C)(COc1ccc(CC3SC(=O)NC3=O)cc1)O2 (centres undefined) [Troglitazone]
> 46 | N[S+](=O)([O-])c1cc2c(cc1Cl)N[C@H](Cc1ccccc1)N[S+]2(=O)[O-] [Benzylhydrochlorothiazide]
> 46 | CC(=O)Nc1ccc(OC(=O)c2ccccc2O)cc1 [ACETAMINOSALOL]
> 46 | O=C(CCCN1CCC(O)(c2ccc(Cl)cc2)CC1)c1ccc(F)cc1 [HALOPERIDOL]
